# Data from patent publication US8269017B2, “Compounds for the treatment of proliferative disorders” (Synta Pharmaceuticals Corporation, priority 2005, dated 2012).
# Entries after “also recorded” stand apart in the source; their conditions may differ.
# What was measured:
# [1] = system: HL-60 (T-cell leukemia); assay: In vitro cytotoxicity, MTS assay, HL-60; type: cell-based, human; conditions: Homo sapiens, HL-60, HL60 (Leukemia), 72 hours, read-out: IC50
# Method in brief: (§1)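 Exponentially growing cells in RPMI1640 with 10% FCS at 2.5×10^4 cells/mL were exposed to compound at final 10, 1, 0.1, 0.01 and 0.001 μM, diluted from 10 mM DMSO stock. Viability read by MTS.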
# [2] = system: MES-SA/DX5 (uterine sarcoma, MDR-1); assay: cells; type: cell-based; conditions: Homo sapiens, MDR1, 72 h, MES/DX5 (MDR-1), MTS assay
# Method in brief: as §1
# [3] = Body weight change in MDA-MB-435S xenograft study (Example 10); type: in vivo, nude mouse; conditions: Compound 169 at 2 and 1 mg/kg, Compound 174 at 4.55 and 2.28 mg/kg body weight, i.v., 1 time per week, 3 doses; Hydrochloride
# Protocol: (§2) Seven to eight week old, female Crl:CD-1-nuBR (nude) mice were obtained from Charles River Laboratories (Wilmington, Mass., USA). Animals were housed 4-5/cage in micro-isolators, with a 12 hr/12 hr light/dark cycle, acclimated for at least 1 week prior to use and fed normal laboratory chow ad libitum. Studies were conducted on animals between 8 and 10 weeks of age at implantation. To implant MDA-MB-4355 tumor cells into nude mice, the cells were trypsinized as above, washed in PBS and resusupended at a concentration of 50×10(6) cells/ml in PBS. Using a 27 gauge needle and 1 cc syringe, 0.1 ml of the cell suspension was injected into the corpus adiposum of nude mice. The corpus adiposum is a fat body located in the ventral abdominal vicera in the right quadrant of the abdomen at the juncture of the os coxae (pelvic bone) and the os femoris (femur).
# (§3) Compounds were formulated in either D5W (Compounds 169 and 174) or DRD (Compound 178). For formulations in D5W, solutions of test articles were prepared by dissolving the appropriate amounts of each compound in 5% dextrose in water (Abbott Laboratories, North Chicago, Ill., USA) by sonication in an ultrasonic water bath. For formulations in DRD, stock solutions of test articles were prepared by dissolving the appropriate amounts of each compound in dimethyl sulfoxide (DMSO) by sonication in an ultrasonic water bath. Stock solutions were prepared weekly, stored at −20° C. and diluted fresh each day for dosing. A solution of 20% Cremophore RH40 (polyoxyl 40 hydrogenated castor oil; BASF Corp., Aktiengesellschaft, Ludwigshafen, Germany) in 5% dextrose in water (Abbott Laboratories, North Chicago, Ill., USA) was also prepared by first heating 100% Cremophore RH40 at 50-60° C. until liquefied and clear, diluting 1:5 with 100% D5W, reheating again until clear and then mixing well. This solution was stored at room temperature for up to 3 months prior to use. To prepare DRD formulations for daily dosing, DMSO stock solutions were diluted 1:10 with 20% Cremophore RH40. […]
# [4] = system: human tumor cell line MDA-MB-435S; assay: Nude mouse xenograft, MDA-MB-435S (Example 10); type: in vivo; conditions: Compound 169 at 2 mg/kg, Compound 174 at 4.55 mg/kg body weight, i.v., 1 time/week, 3 doses
# Protocol: as §2
# Tumors were then permitted to develop in vivo until the majority reached an average of 100-200 mm^3 in tumor volume, which typically required 2-3 weeks following implantation. […] Tumor volumes (V) were calculated by caliper measurement of the width (W), length (L) and thickness (T) of tumors using the following formula: V=0.5236×(L×W×T). Animals were randomized into treatment groups so that the median tumor volumes of each group were similar at the start of dosing. % T/C values, as a measure of efficacy, were determined as follows: • (i) If ΔT>0: % T/C=[…] • (ii) If ΔT<0: % T/C=(ΔT/T0)×100 • (iii) ΔT=Change in median tumor volume between start of dosing and the end of study. • (iv) ΔC=Change in median tumor volume between start of dosing and the end of study. • (v) T0=Median tumor volume at start of dosing.
# as §3, with “use.” for “use. To prepare DRD formulations for daily dosing, DMSO stock solutions were diluted 1:10 with 20% Cremophore RH40.”
# [5] = system: MES-SA (uterine sarcoma); assay: In vitro cytotoxicity, MTS assay, MES-SA; type: cell-based, human; conditions: Homo sapiens, MES-SA (Uterine Carcinoma), 72 hours, read-out: IC50
# Method in brief: as §1
# [6] = Body weight change in EMT6 tumor growth study; type: in vivo, nude mouse
# Protocol: Seven to eight week old, female Crl:CD-1-nuBR (nude) mice were obtained from Charles River Laboratories (Wilmington, Mass., USA). Animals were housed 4-5/cage in micro-isolators, with a 12 hr/12 hr light/dark cycle, acclimated for at least 1 week prior to use and fed normal laboratory chow ad libitum. Studies were conducted on animals between 8 and 10 weeks of age at implantation. To implant EMT6 tumor cells into nude mice, the cells were trypsinized as above, washed in PBS and resusupended at a concentration of 10×10^6 cells/mL in PBS. Using a 27 gauge needle and 1 cc syringe, 0.1 mL of the cell suspension was injected subcutaneously into the flank of each nude mouse. Tumor-bearing animals were given single intravenous (i.v.) bolus injections of either vehicle or Compound 174 at 10 mL per kg body weight. To measure the effect of the drug treatment on tumor growth rates, tumor volumes were measured 3 days after dosing (FIG. 22).
smiles,measurement,setting,value
"COc1ccc(-c2cnoc2-c2cc(OC)c(OC)c(OC)c2)cc1NC(=O)C(N)Cc1ccccc1.Cl (stereo not shown) [Compound 174, 2-amino-N-(2-methoxy-5-(5-(3,4,5-trimethoxyphenyl)isoxazol-4-yl)phenyl)-3-phenylpropanamide Hydrochloride]",IC50,[1],2 nM
same,IC50,[2],0.1 nM
same,overt toxicity (effect on body weights),[3],not overtly toxic; also recorded: not associated with overt toxicity
same,% T/C,[4],25%
same,IC50,[5],0.1 nM
same,largest average percent change in body weight,"[6]; 4.55 mg/kg body weight single i.v., one day after dosing",−7.3%
same,body weight lost by any individual animal,[6]; any point over the course of the study,≤ 11%
